Experimental data from US6528532B1, “Urea derivatives as HIV aspartyl protease inhibitors” (Pharmacor Inc., priority 2002, dated 2003).

Target: HIV protease (Human immunodeficiency virus type 1 group M subtype B, UniProt P04585)
Test: Enzymatic (FRET fluorometric) assay for determining the inhibition constant (Ki) of compounds targeting the HIV protease
Type: biochemical
Conditions: FRET substrate (EDANS/DABCYL), equation of Henderson; read-out: Ki
Text: Enzymatic Assay for Determining the Inhibition Constant (Ki) of Synthetic Compounds Targeting the HIV Protease
This is a fluorometric assay based on the cleavage by protease of a substrate carrying a donor group (EDANS) and an acceptor group (DABCYL) on each side of the cleavage site, interacting together through fluorescence resonance energy transfer (FRET) as described by Matayoshi et al. (Science 247:[…], 1990).
After calculation of Vo and Vi, the inhibition constant (Ki) of the compound is determined using the equation of Henderson: [formula]
where Vo=the enzyme's initial velocity
Vi=the enzyme velocity in the presence of the inhibitory compound,
[I]=inhibitor concentration, [S]=substrate concentration,
Km=Michaelis-Menten constant and Kiapp=apparent Ki
Graphs are traced and the Ki determined using GraphPad Prism software v. 3.0.

Row | SMILES | Ki [µM]
1 | CC(C)CCN([C@H](CO)CCCCNC(=O)N(Cc1ccc(C(F)(F)F)cc1)Cc1ccc2c(c1)OCO2)S(=O)(=O)c1ccc(N)cc1 [Example 94, (2S) 2-N-(4-Aminobenzenesulfonyl)-2-N-(3-methylbutyl)-6-N-[N′-(4-trifluoromethylbenzyl)-N′-piperonylaminocarbonyl]-2,6-diaminohexanol] | 0.003
2 | CC(C)CN([C@H](CO)CCCCNC(=O)N(Cc1ccc2c(c1)OCO2)Cc1cccs1)S(=O)(=O)c1ccc(N)cc1 [Example 75, (2S) 2-N-(4-Aminobenzenesulfonyl)-2-N-isobutyl-6-N-[N′-(2-thiophenemethyl)-N′-piperonylaminocarbonyl]-2,6-diaminohexanol] | 0.002
3 | Cc1ccc(S(=O)(=O)N(CC(C)C)[C@@H](CCCCNC(=O)N(Cc2ccccc2)Cc2cccc([N+](=O)[O-])c2)C(=O)O)cc1 [Example 55, Nα-Isobutyl-Nα-(4-methylbenzenesulfonyl)-Nε-[N′-benzyl-N′-(3-nitrobenzyl)aminocarbonyl]-L-lysine] | 0.0011
4 | Cc1ccc(S(=O)(=O)N(CC(C)C)[C@@H](CCCCNC(=S)N(Cc2ccccc2)Cc2ccccc2)C(=O)O)cc1 [Example 37, Nα-Isobutyl-Nα-(4-methylbenzenesulfonyl)-Nε-(N′,N′-dibenzylaminothiocarbonyl)-L-lysine] | 0.012
5 | CC(C)CN([C@H](CO)CCCCNC(=O)N(CCc1cccs1)Cc1ccc(F)cc1)S(=O)(=O)c1ccc(N)cc1 [Example 69, (2S) 2-N-(4-Aminobenzenesulfonyl)-2-N-isobutyl-6-N-[N′-(4-fluorobenzyl)-N′-(2-thiophenethyl)aminocarbonyl]-2,6-diaminohexanol] | 0.034
6 | Cc1ccc(S(=O)(=O)N(CC(C)C)[C@@H](CCCCNC(=O)N(Cc2ccccc2)Cc2ccccc2N)C(=O)O)cc1 [Example 57, Nα-Isobutyl-Nα-(4-methylbenzenesulfonyl)-Nε-[N′-(2-ninobenzyl)-N′-benzylaminocarbonyl]-L-lysine] | 0.0017
7 | Cc1ccc(S(=O)(=O)N(CC(C)C)[C@@H](CCCCNC(=O)N(Cc2ccccc2)Cc2ccncc2)C(=O)O)cc1 [Example 38, Nα-Isobutyl-Nα-(4-methylbenzenesulfonyl)-Nε-[N′-benzyl-N′-(4-picolyl)aminocarbonyl]-L-lysine] | 0.0037
8 | CC(C)CN([C@H](CO)CCCCNC(=O)N[C@@H](Cc1c[nH]c2ccccc12)C(=O)O)S(=O)(=O)c1ccc(N)cc1 [Example 65, (2S,2′S) 2-N-(4-Aminobenzenesulfonyl)-2-N-isobutyl-6-N-(S-tryptophanyl-N′-carbonyl)-2,6-diaminohexanol] | > 0.3
9 | CC(C)CN([C@H](CO)CCCCNC(=O)NCc1ccc2c(c1)OCO2)S(=O)(=O)c1ccc(N)cc1 [Example 74, (2S) 2-N-(4-Aminobenzenesulfonyl)-2-N-isobutyl-6-N-piperonylaminocarbonyl-2,6-diaminohexanol] | 0.022
10 | CCC(C)CN(C(CO)CCCCNC(=O)N(Cc1ccccc1)Cc1cccc2c1OCO2)S(=O)(=O)c1ccc(N)cc1 [Example 97, (2S) 2-N-(4-Aminobenzenesulfonyl)-2-N-(2-methylbutyl)-6-N-[N′-benzyl-N′-(2,3-methylenedioxy)benzylaminocarbonyl]-2,6-diaminohexanol] | 0.021
11 | Cc1ccc(S(=O)(=O)N(CC(C)C)[C@H](CO)CCCCNC(=O)N(Cc2ccccc2)Cc2ccccc2)cc1 [Example 33, (2S) 2-N-Isobutyl-2-N-(4-methylbenzenesullonyl)-6-N-(N′,N′-dibenzylaminocarbonyl)-2,6-diaminohexanol] | 0.017
12 | CC(C)CN([C@H](CO)CCCCNC(=O)N(Cc1ccccc1)Cc1ccncc1)S(=O)(=O)c1ccc(N)cc1 [Example 52, (2S) 2-N-(4-Aminobenzenesulfonyl)-2-N-isobutyl-6-N-[N′-benzyl-N′-(4-picolyl)aminocarbonyl]-2,6-diaminohexanol] | 0.09
13 | COc1ccc(CN(Cc2ccncc2)C(=O)NCCCC[C@@H](C(=O)O)N(CC(C)C)S(=O)(=O)c2ccc(N)cc2)cc1 [Example 49, Nα-(4-Aminobenzenesulfonyl)-Nα-isobutyl-Nε-[N′-(4-methoxybenzyl)-N′-(4-picolyl)aminocarbonyl]-L-lysine] | 0.012
14 | Cc1ccc(S(=O)(=O)N(CC(C)C)[C@@H](CCCCNC(=O)N(Cc2ccccc2)C(C)C)C(=O)O)cc1 [Example 39, Nα-Isobutyl-Nα-(4-methylbenzenesulfonyl)-Nε-[(N′-benzyl-N′-iso-propyl)aminocarbonyl]-L-lysine] | 0.019
15 | Cc1ccc(S(=O)(=O)N(CC(C)C)C(CCCCNC(=NC#N)NCCc2c[nH]c3ccccc23)C(=O)O)cc1 [Example 29, Nα-Isobutyl-Nα-(4-methylbenzenesulfonyl)-Nε-[2′-(3-indolyl)ethylaminocarbonyl-N-cyanoamidine]-L-lysine] | 0.0082
16 | COc1ccc(CN(Cc2ccncc2)C(=O)NCCCC[C@@H](CO)N(CC(C)C)S(=O)(=O)c2ccc(C)cc2)cc1 [Example 45, (2S) 2-N-Isobutyl-2-N-(4-methylbenzenesulfonyl)-6-N-[N′-(4-methoxybenzyl)-N′-(4-picolyl)aminocarbonyl]-2,6-diaminohexanol] | 0.054
17 | Cc1ccc(S(=O)(=O)N(CC(C)C)[C@@H](CCCCNC(=NC#N)NCc2ccccc2)C(=O)O)cc1 [Example 28, Nα-Isobutyl-Nα-(4-methylbenzenesulfonyl)-Nε-(benzylaminocarbonyl-N-cyanoamidine)-L-lysine] | 0.063
18 | Cc1ccc(S(=O)(=O)N(CC(C)C)[C@@H](CCCCNC(=O)NCCc2c[nH]c3ccccc23)C(=O)O)cc1 [Example 6, Nα-Isobutyl-Nα-(4-methylbenzenesulfonyl)-Nε-[2′-(3-indolyl)ethylaminocarbonyl]-L-lysine] | 0.04
19 | CC(C)CN([C@H](CO)CCCCNC(=O)N(Cc1ccc([N+](=O)[O-])cc1)Cc1ccc2c(c1)OCO2)S(=O)(=O)c1ccc(N)cc1 [Example 84, (2S) 2-N-(4-Aminobenzenesulfonyl)-2-N-isobutyl-6-N-[N′-(4-nitrobenzyl)-N′-piperonylaminocarbonyl]-2,6-diaminohexanol] | 0.002
20 | CC(C)CN([C@@H](CCCCNC(=O)N(Cc1ccccc1)Cc1ccncc1)C(=O)O)S(=O)(=O)c1ccc(N)cc1 [Example 48, Nα-(4-Aminobenzenesulfonyl)-Nα-isobutyl-Nε-[N′-benzyl-N′-(4-picolyl)aminocarbonyl]-L-lysine] | 0.012
21 | Cc1ccc(S(=O)(=O)N(CC(C)C)[C@@H](CCCCNC(=O)N(Cc2ccncc2)Cc2ccncc2)C(=O)O)cc1 [Example 44, Nα-Isobutyl-Nα-(4-methylbenzenesulfonyl)-Nε-[N′,N′-di-(4-picolyl)aminocarbonyl]-L-lysine] | 0.187
22 | Cc1ccc(S(=O)(=O)N(CC(C)C)[C@@H](CCCCNC(=S)NCc2ccccc2)C(=O)O)cc1 [Example 16, Nα-Isobutyl-Nα-(4-methylbenzenesulfonyl)-Nε-benzylaminothiocarbonyl-L-lysine] | 0.152
23 | COc1ccc(CN(Cc2ccncc2)C(=O)NCCCC[C@@H](C(=O)O)N(CC(C)C)S(=O)(=O)c2ccc(C)cc2)cc1 [Example 43, Nα-Isobutyl-Nα-(4-methylbenzenesulfonyl)-Nε-[N′-(4-methoxybenzyl)-N′-(4-picolyl)aminocarbonyl]-L-lysine] | 0.0079
24 | CC(C)CN([C@H](CO)CCCCNC(=O)N(Cc1ccc(F)cc1)C1CCCCC1)S(=O)(=O)c1ccc(N)cc1 [Example 66, (2S) 2-N-(4-Aminobenzenesulfonyl)-2-N-isobutyl-6-N-[N′-cyclohexyl-N′-(4-fluorobenzyl)aminocarbonyl]-2,6-diaminohexanol] | 0.175
25 | Cc1ccc(S(=O)(=O)N(CC(C)C)[C@@H](CCCCNC(=O)N[C@@H]2CCc3ccccc32)C(=O)O)cc1 [Example 24, (1S,1′R) Nα-Isobutyl-Nα-(4-methylbenzenesulfonyl)-Nε-(indanyl-1′-aminocarbonyl)-S-lysine] | 0.196
26 | CC(C)CN([C@H](CO)CCCCNC(=O)N(Cc1ccccc1)Cc1cccnc1)S(=O)(=O)c1ccc(N)cc1 [Example 50, (2S) 2-N-(4-Aminobenzenesulfonyl)-2-N-isobutyl-6-N-[N′-benzyl-N′-(3-picolyl)aminocarbonyl]-2,6-diaminohexanol] | 0.034
27 | Cc1ccc(S(=O)(=O)N(CC(C)C)[C@@H](CCCCNC(=O)NCCc2ccccc2)C(=O)O)cc1 [Example 21, Nα-Isobutyl-Nα-(4-methylbenzenesulfonyl)-Nε-(phenethylaminocarbonyl)-L-lysine] | 0.167
28 | CCC(C)CN(C(CO)CCCCNC(=O)N(Cc1ccc2c(c1)OCO2)Cc1cccs1)S(=O)(=O)c1ccc(N)cc1 [Example 99, (2S) 2-N-(4-Aminobenzenesulfonyl)-2-N-(2-methylbutyl)-6-N-[N′-(2-thiophenemethyl)-N′-piperonylaminocarbonyl]-2,6-diaminohexanol] | 0.024
29 | Cc1ccc(S(=O)(=O)N(CC(C)C)[C@H](CO)CCCCNC(=O)N(Cc2ccccc2)Cc2ccccc2N)cc1 [Example 62, (2S) 2-N-Isobutyl-2-N-(4-methylbenzenesulfonyl)-6-N-[N′-(2-aminobenzyl)-N′-benzylaminocarbonyl]-2,6-diaminohexanol] | 0.039
